Data published in patent publication US6555128B2, “Feeds containing docosahexaenoic acid and/or conjugated docosahexaenoic acid, and a method for farming fishes by using such feeds” (Hokkaido University, priority 2000, dated 2003).

Columns and labels:
steelheads [1] = assay: Feeding of steelheads: content and composition of the lipid in the internal organ; assay type: in vivo, Oncorhynchus, steelheads (rainbow trouts)
Procedure: (§1) Effects of ethyl docosahexaenoate and conjugated ethyl docosahexaenoate upon accumulation of the fat and the lipid composition were examined by feeding both ethyl esters to rainbow trouts.
(§2) Measuring conditions were as follows.
(§3) 1) Sample fish: Oncorhynchus, steelheads 3 months old after birth
(§4) 2) Farming condition: water temperature 10° C., each group 60 fishes
(§5) 3) Feed (fundamental feed: compounded feed for oriental trouts)
(§6) 1st group: fundamental feed +olive oil (5 wt %)
(§7) 2nd group: fundamental feed +olive oil (3 wt %) +ethyl docosahexaenoate (0.5 wt %)
(§8) 3rd group: fundamental feed +olive oil (4.5 wt %) +ethyl conjugated docosahexaenoate (0.5 wt %)
(§9) 4th group: fundamental feed +olive oil (3 wt %) +ethyl conjugated docosahexaenoate (2 wt %)
(§10) Conjugated ethyl docosahexaenoate used is obtained by isomerization of double bonds of ethyl docosahexaenoate in the presence of an alkali catalyst, and its composition consisted of 81.4% of conjugated ethyl docosahexaenoate and 18.6% of ethyl docosahexaenoate. More specifically, conjugated ethyl docosahexaenoate consisted of 57.4% of conjugated diene ester, 12.0% of conjugated triene ester, 12.0% of conjugated tetraene ester and 18.6% of ethyl docosahexaenoate. […]
(§11) Steelheads used, which were 3 months old after birth (average weight 0.82 g) and divided into four groups each consisting 60 steelheads, were farmed at a water temperature of about 10° C. for 21 weeks.
(§12) Effects of the feeds upon the internal organs and the lipid contents of the steelheads 21 weeks old after starting the farming were examined. The concrete lipid compositions in the internal organs are shown in Table 1, and the concrete lipid compositions in muscles shown in Table 2.

steelheads [2] = assay: Feeding of steelheads: content and composition of the lipid in muscles; assay type: in vivo, Oncorhynchus, steelheads (rainbow trouts)
Procedure: as §1, §2, §3, §4, §5, §6, §7, §8, §9, §10, §11, §12

[3] = 0.5 wt % in feed, farmed 21 weeks, water 10° C.
[4] = 2nd to 4th groups versus feed with neither ester

CC/C=C\C/C=C\C/C=C\C/C=C\C/C=C\C/C=C\CCC(=O)OCC [ethyl docosahexaenoate]
Lipid composition (%) FFA, internal organ (steelheads [1]; [3]): 3.0% | Lipid composition (%) PL, internal organ (steelheads [1]; [3]): 5.8% | Lipid composition (%) SE, internal organ (steelheads [1]; [3]): 1.6% | Lipid composition (%) TG, internal organ (steelheads [1]; [3]): 89.6% | Lipid content (%) in the internal organ (steelheads [1]; [3]): 23.2% | lipid contents in the internal organs compared with 1st group (FIG. 1) (steelheads [1]; [4]): lower lipid contents | Lipid composition (%) FFA, muscles (steelheads [2]; [3]): 1.7% | Lipid composition (%) PL, muscles (steelheads [2]; [3]): 21.0% | Lipid composition (%) SE, muscles (steelheads [2]; [3]): 0.7% | Lipid composition (%) TG, muscles (steelheads [2]; [3]): 76.6% | Lipid content (%) in muscles (steelheads [2]; [3]): 4.3% | lipid contents in the muscles compared with 1st group (FIG. 1) (steelheads [2]; [4]): lower lipid contents
